Laboratory results published in ChEMBL document CHEMBL4819054, “Rotenoids and Other Specialized Metabolites from the Roots of Mirabilis multiflora: Opioid and Cannabinoid Receptor Radioligand Binding Affinities” (J Nat Prod, 2021).
Activity calls are given as the source filed them. The calls are words filed in the database; no cut-off is given here.

How the values were obtained:
Conditions in all cases: Membrane
[1] = target: Mu-type opioid receptor (Homo sapiens) (UniProt P35372); test: Displacement of [3H]-DAMGO from human mu opioid receptor expressed in CHO-K1 cell membranes at 10 uM incubated for 60 mins by TopCount scintillation counting method relative to control
[2] = target: Kappa-type opioid receptor (Homo sapiens) (UniProt P41145); test: Displacement of [3H]-U69593 from human kappa opioid receptor expressed in CHO-K1 cell membranes at 10 uM incubated for 60 mins by TopCount scintillation counting method relative to control
[3] = target: Delta-type opioid receptor (Homo sapiens) (UniProt P41143); test: Displacement of [3H]-DPDPE from human delta opioid receptor expressed in CHO-K1 cell membranes at 10 uM incubated for 60 mins by TopCount scintillation counting method relative to control
[4] = target: Cannabinoid receptor 1 (Homo sapiens) (UniProt P21554); test: Displacement of [3H]-CP-55,940 from full-length recombinant human CB1R expressed in CHO-K1 cell membranes at 10 uM incubated for 90 mins by TopCount scintillation counting method relative to control
[5] = target: Cannabinoid receptor 2 (Homo sapiens) (UniProt P34972); test: Displacement of [3H]-CP-55,940 from full-length recombinant human CB2R expressed in CHO-K1 cell membranes at 10 uM incubated for 90 mins by TopCount scintillation counting method relative to control
Cannabinoid receptor 2 (Homo sapiens), sequence (P34972 whole entry): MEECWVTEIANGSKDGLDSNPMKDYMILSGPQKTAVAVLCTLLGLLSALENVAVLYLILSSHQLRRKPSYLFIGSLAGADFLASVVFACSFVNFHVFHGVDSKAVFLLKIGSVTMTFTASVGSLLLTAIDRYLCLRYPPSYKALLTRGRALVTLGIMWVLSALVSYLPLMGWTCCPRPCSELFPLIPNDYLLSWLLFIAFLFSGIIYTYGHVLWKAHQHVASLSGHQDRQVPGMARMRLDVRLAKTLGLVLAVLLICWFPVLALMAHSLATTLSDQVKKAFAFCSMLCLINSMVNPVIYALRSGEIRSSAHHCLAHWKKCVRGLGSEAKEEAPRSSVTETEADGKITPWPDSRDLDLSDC

Delta-type opioid receptor (Homo sapiens), sequence (P41143 whole entry): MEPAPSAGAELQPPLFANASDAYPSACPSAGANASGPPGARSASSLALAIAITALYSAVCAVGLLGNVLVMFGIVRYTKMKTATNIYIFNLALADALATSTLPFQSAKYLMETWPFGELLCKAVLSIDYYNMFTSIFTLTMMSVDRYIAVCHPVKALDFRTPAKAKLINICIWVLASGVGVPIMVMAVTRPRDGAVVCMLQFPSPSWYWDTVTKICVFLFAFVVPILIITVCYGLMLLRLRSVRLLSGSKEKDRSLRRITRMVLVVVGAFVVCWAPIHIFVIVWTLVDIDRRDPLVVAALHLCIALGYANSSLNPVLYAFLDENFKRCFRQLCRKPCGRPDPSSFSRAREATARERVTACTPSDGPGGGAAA
Mu-type opioid receptor (Homo sapiens), sequence (P35372 whole entry): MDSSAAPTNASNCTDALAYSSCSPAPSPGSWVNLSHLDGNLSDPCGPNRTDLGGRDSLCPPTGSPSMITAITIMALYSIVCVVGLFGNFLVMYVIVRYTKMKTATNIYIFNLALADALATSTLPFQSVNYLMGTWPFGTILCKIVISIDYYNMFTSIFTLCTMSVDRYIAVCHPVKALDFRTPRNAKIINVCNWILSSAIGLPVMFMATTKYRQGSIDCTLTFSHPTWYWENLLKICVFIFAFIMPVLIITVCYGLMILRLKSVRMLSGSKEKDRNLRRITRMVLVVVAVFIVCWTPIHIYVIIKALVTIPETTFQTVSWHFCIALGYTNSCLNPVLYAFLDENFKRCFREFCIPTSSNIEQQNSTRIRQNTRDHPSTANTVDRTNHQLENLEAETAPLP
Cannabinoid receptor 1 (Homo sapiens), sequence (P21554 whole entry): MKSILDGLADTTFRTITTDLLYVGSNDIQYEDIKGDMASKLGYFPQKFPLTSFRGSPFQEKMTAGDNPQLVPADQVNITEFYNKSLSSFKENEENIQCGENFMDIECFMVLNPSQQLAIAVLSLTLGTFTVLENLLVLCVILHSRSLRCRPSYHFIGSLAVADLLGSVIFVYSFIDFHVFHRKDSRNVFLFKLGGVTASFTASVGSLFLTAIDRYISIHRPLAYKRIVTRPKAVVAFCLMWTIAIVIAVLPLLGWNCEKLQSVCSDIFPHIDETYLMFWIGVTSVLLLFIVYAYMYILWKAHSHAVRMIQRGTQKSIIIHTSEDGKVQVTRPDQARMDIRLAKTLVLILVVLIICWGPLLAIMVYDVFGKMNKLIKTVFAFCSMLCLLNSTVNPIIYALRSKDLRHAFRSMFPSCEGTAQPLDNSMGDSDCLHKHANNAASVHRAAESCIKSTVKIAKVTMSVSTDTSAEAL
Kappa-type opioid receptor (Homo sapiens), sequence (P41145 whole entry): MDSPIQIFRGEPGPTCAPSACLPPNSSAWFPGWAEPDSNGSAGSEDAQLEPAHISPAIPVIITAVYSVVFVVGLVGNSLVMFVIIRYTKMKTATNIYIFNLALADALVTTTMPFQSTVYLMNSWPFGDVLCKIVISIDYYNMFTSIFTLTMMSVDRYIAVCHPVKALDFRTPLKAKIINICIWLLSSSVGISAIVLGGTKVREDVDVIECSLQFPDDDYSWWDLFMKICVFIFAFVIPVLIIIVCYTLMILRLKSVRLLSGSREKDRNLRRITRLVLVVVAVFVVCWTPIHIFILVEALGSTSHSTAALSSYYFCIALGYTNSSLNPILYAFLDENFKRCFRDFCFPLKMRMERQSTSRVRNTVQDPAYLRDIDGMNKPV

| Compound | Activity [1] | Activity [2] | Activity [3] | Activity [4] | Activity [5] |
| --- | --- | --- | --- | --- | --- |
| COc1cc2c(c(O)c1C)C(=O)[C@@]1(O)c3cccc(OC)c3O[C@@H](OC)[C@@H]1O2 | 58.6% | 30.5% | 12.3% | inactive | 5.4% |
| CO[C@@H]1Oc2ccccc2-c2c1oc1cc(O)c(C)c(O)c1c2=O | 64.5% | 48.8% | 24.5% | inactive | inactive |
| COc1c(C)c(O)c2c(c1C)O[C@H]1[C@H](OC)Oc3c(O)cccc3[C@]1(O)C2=O | 55.3% | 41.8% | 31.6% | 17% | inactive |
| COc1cc2c(c(O)c1C)C(=O)[C@@]1(O)c3cccc(O)c3OC[C@@H]1O2 | 50.9% | 21.8% | 26.3% | inactive | inactive |

The next lines start with the values.

| Activity [1] | Activity [2] | Activity [3] | Activity [4] | Activity [5] | Compound |
| --- | --- | --- | --- | --- | --- |
| 45.9% | 38.9% | 15.2% | inactive | inactive | COc1c(C)c(O)c2c(c1C)O[C@H]1COc3c(O)cccc3[C@]1(O)C2=O |
| 39.6% | 28.9% | 20.1% | 42.2% | 7.4% | COc1cc2c(c(O)c1C)C(=O)[C@@]1(O)c3cccc(O)c3O[C@@H](OC)[C@@H]1O2 |
